Reference: ChEMBL document CHEMBL1201862, “PubChem BioAssay data set” (2004)
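Step 1: Grow cells in 96-well plates. Step 2: Expose to compound for 48 hours at 5 concentrations. Step 3: Interpolate endpoints linearly; if unreached, use highest concentration. At the GI50, growth is halved.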 Active and inactive are the calls of the source. No stated cut-off is given here; in the data, active = GI50 up to about 1.1 µM and inactive = higher.

Columns and labels:
Test in all cases: DTP human tumour cell line panel, 48 h
[1] = system: 786-0
[2] = system: A498
[3] = system: BT-549
[4] = system: COLO 205
[5] = system: DU-145
[6] = system: HCC 2998
[7] = system: HOP-62
[8] = system: Hs-578T
[9] = system: LOX IMVI
[10] = system: OVCAR-3
[11] = system: OVCAR-8
[12] = system: RPMI-8226
[13] = system: SK-OV-3
[14] = system: SW-620
[15] = system: TK-10
[16] = system: U-251
[17] = system: UACC-257
[18] = system: UACC-62
[19] = system: NCI-H460
[20] = system: RXF 393

Measured: GI50

CCOC(=O)P(=O)(O)c1ccc(N(C)Cc2ccccc2)cc1
inactive: [1] > 100 µM | [2] > 100 µM | [3] > 100 µM | [4] > 100 µM | [5] > 100 µM | [6] > 100 µM | [7] > 100 µM | [8] > 100 µM | [9] > 100 µM | [10] > 100 µM | [11] > 100 µM | [12] > 100 µM | [13] > 100 µM | [14] > 100 µM | [15] > 100 µM | [16] > 100 µM | [17] > 100 µM | [18] > 100 µM

O=C(O)c1nc2cc(C(F)(F)F)ccc2[nH]c1=O
inactive: [1] > 100 µM | [2] > 100 µM | [3] > 100 µM | [4] > 100 µM | [5] > 100 µM | [6] > 100 µM | [7] > 100 µM | [8] > 100 µM | [9] > 100 µM | [19] > 100 µM | [10] > 100 µM | [11] > 100 µM | [12] > 100 µM | [13] > 100 µM | [14] > 100 µM | [15] > 100 µM | [16] > 100 µM | [17] > 100 µM | [18] > 100 µM

O=c1oc2c(ccc3ccccc32)cc1C1=CSC2=NCCN12
inactive: [1] 38.7 µM | [3] 26.2 µM | [4] 50 µM | [5] 26.5 µM | [6] 3.82 µM | [7] 35.8 µM | [8] 73.1 µM | [9] 49.7 µM | [19] 36.7 µM | [10] 31.6 µM | [11] 54.7 µM | [12] 42.6 µM | [20] 33.5 µM | [13] 67.3 µM | [14] 29.7 µM | [15] 49.3 µM | [16] 59.8 µM | [17] 56.1 µM | [18] > 100 µM

NC(=S)NS(=O)(=O)c1ccc(Cl)cc1
inactive: [1] > 100 µM | [3] > 100 µM | [4] > 100 µM | [5] > 100 µM | [6] > 100 µM | [7] > 100 µM | [8] > 100 µM | [9] > 100 µM | [19] > 100 µM | [10] > 100 µM | [11] > 100 µM | [12] > 100 µM | [20] > 100 µM | [13] > 100 µM | [14] > 100 µM | [15] > 100 µM | [16] > 100 µM | [17] > 100 µM | [18] > 100 µM
